Source: PubChem BioAssay AID1259407 (Chemical Carcinogenesis Research Information System (CCRIS), 2018)
Activity calls are given as the source filed them. No rule for the calls is given here.

Tested on: CCRIS mutagenicity, Ames/micronucleus/aberration tests
Experiment: CCRIS mutagenicity studies
[1] = Test System: AMES SALMONELLA TYPHIMURIUM, Strain/Indicator: TA98, Metabolic Activation: NONE, Method: STANDARD PLATE
[2] = Test System: AMES SALMONELLA TYPHIMURIUM, Strain/Indicator: TA100, Metabolic Activation: NONE, Method: STANDARD PLATE
[3] = Test System: AMES SALMONELLA TYPHIMURIUM, Strain/Indicator: TA100, Metabolic Activation: RAT, LIVER, S-9, AROCLOR 1254, Method: STANDARD PLATE
[4] = Test System: AMES SALMONELLA TYPHIMURIUM, Strain/Indicator: TA1537, Metabolic Activation: NONE, Method: STANDARD PLATE
[5] = Test System: AMES SALMONELLA TYPHIMURIUM, Strain/Indicator: TA1538, Metabolic Activation: NONE, Method: STANDARD PLATE
[6] = Test System: AMES SALMONELLA TYPHIMURIUM, Strain/Indicator: TA1538, Metabolic Activation: RAT, LIVER, S-9, AROCLOR 1254, Method: STANDARD PLATE
[7] = Test System: AMES SALMONELLA TYPHIMURIUM, Strain/Indicator: TA100, Metabolic Activation: NONE, Method: PREINCUBATION

`C=C(C)OC(C)=O` was tested, and the mutagenic call (Test System: AMES SALMONELLA TYPHIMURIUM, Strain/Indicator: TA98, Metabolic Activation: HAMSTER, LIVER, S-9, AROCLOR 1254, Method: STANDARD PLATE) was “inactive; negative”, the mutagenic call [1] was “inactive; negative” and the mutagenic call (Test System: AMES SALMONELLA TYPHIMURIUM, Strain/Indicator: TA98, Metabolic Activation: RAT, LIVER, S-9, AROCLOR 1254, Method: STANDARD PLATE) was “inactive; negative”. For the same compound, the mutagenic call (Test System: AMES SALMONELLA TYPHIMURIUM, Strain/Indicator: TA100, Metabolic Activation: HAMSTER, LIVER, S-9, AROCLOR 1254, Method: STANDARD PLATE) was “inactive; negative”, the mutagenic call [2] was “inactive; negative” and the mutagenic call [3] was “inactive; negative”. The mutagenic call (Test System: AMES SALMONELLA TYPHIMURIUM, Strain/Indicator: TA1535, Metabolic Activation: HAMSTER, LIVER, S-9, AROCLOR 1254, Method: STANDARD PLATE) was “inactive; negative”, the mutagenic call (Test System: AMES SALMONELLA TYPHIMURIUM, Strain/Indicator: TA1535, Metabolic Activation: NONE, Method: STANDARD PLATE) was “inactive; negative” and the mutagenic call (Test System: AMES SALMONELLA TYPHIMURIUM, Strain/Indicator: TA1535, Metabolic Activation: RAT, LIVER, S-9, AROCLOR 1254, Method: STANDARD PLATE) was “inactive; negative”. For the same compound, the mutagenic call (Test System: AMES SALMONELLA TYPHIMURIUM, Strain/Indicator: TA1537, Metabolic Activation: HAMSTER, LIVER, S-9, AROCLOR 1254, Method: STANDARD PLATE) was “inactive; negative”, the mutagenic call [4] was “inactive; negative” and the mutagenic call (Test System: AMES SALMONELLA TYPHIMURIUM, Strain/Indicator: TA1537, Metabolic Activation: RAT, LIVER, S-9, AROCLOR 1254, Method: STANDARD PLATE) was “inactive; negative”. The mutagenic call (Test System: AMES SALMONELLA TYPHIMURIUM, Strain/Indicator: TA1538, Metabolic Activation: HAMSTER, LIVER, S-9, AROCLOR 1254, Method: STANDARD PLATE) was “inactive; negative”, the mutagenic call [5] was “inactive; negative” and the mutagenic call [6] was “inactive; negative”. For the same compound, the mutagenic call (Test System: Mouse lymphoma, Strain/Indicator: L5178Y (tk+/tk-), Metabolic Activation: None, Method: Suspension/plate) was “active; inconclusive (previously evaluated positive)” and the mutagenic call (Test System: Mouse lymphoma, Strain/Indicator: L5178Y (tk+/tk-), Metabolic Activation: Rat, liver, S-9, Aroclor 1254, Method: Suspension/plate) was “inactive; negative”.
In the case of `Nc1ccc(N=Nc2ccc(-c3ccc(N=Nc4c(S(=O)(=O)O)cc5c(c4N)C(=O)/C(=N/Nc4ccccc4)C(S(=O)(=O)O)=C5)cc3)cc2)c(N)c1`, the mutagenic call (Test System: AMES SALMONELLA TYPHIMURIUM, Strain/Indicator: SV50, Metabolic Activation: HAMSTER, LIVER, S-9, Method: PREINCUBATION (PRIVAL METHOD)) is reported as “active; positive”, the mutagenic call (Test System: AMES SALMONELLA TYPHIMURIUM, Strain/Indicator: SV50, Metabolic Activation: RAT, LIVER, S-9, AROCLOR 1254, Method: PREINCUBATION (PRIVAL METHOD)) is reported as “active; positive” and the mutagenic call (Test System: AMES SALMONELLA TYPHIMURIUM, Strain/Indicator: TA98, Metabolic Activation: HAMSTER, LIVER, S-9, Method: PREINCUBATION (PRIVAL METHOD)) is reported as “active; positive”. The mutagenic call [1] was “inactive; negative”, the mutagenic call (Test System: AMES SALMONELLA TYPHIMURIUM, Strain/Indicator: TA98, Metabolic Activation: RAT, LIVER, S-9, AROCLOR 1254, Method: PREINCUBATION (PRIVAL METHOD)) was “active; positive” and the mutagenic call (Test System: AMES SALMONELLA TYPHIMURIUM, Strain/Indicator: TA98, Metabolic Activation: RAT, LIVER, S-9, PHENOBARBITAL, Method: STANDARD PLATE) was “inactive; negative”. For the same compound, the mutagenic call [2] was “inactive; negative”, the mutagenic call (Test System: AMES SALMONELLA TYPHIMURIUM, Strain/Indicator: TA100, Metabolic Activation: RAT, LIVER, S-9, PHENOBARBITAL, Method: STANDARD PLATE) was “inactive; negative” and the mutagenic call [5] was “inactive; negative”. The mutagenic call [6] was “active; positive”, the mutagenic call (Test System: Ames Salmonella typhimurium, Strain/Indicator: TA98, Metabolic Activation: Rat, Liver, S-9, Sodium phenobarbitone, Method: Preincubation) was “active; positive, test conducted under both aerobic and anaerobic conditions” and the mutagenic call (Test System: Ames Salmonella typhimurium, Strain/Indicator: TA1538, Metabolic Activation: Rat, Liver, S-9, Sodium phenobarbitone, Method: Preincubation) was “active; positive, test conducted under both aerobic and anaerobic conditions”.
In the case of `CN(C)CCNC(=O)c1cccc2c1ncc1ccccc12`, the mutagenic call [4] is reported as “active; positive”.
With `O=NN(C1CCCCC1)C1CCCCC1` the mutagenic call (End Point: IN VITRO MICRONUCLEUS, Test System: HUMAN LYMPHOCYTES, Metabolic Activation: NONE) was “active; positive”.
In the case of `[O]=[Ce]=[O]`, the mutagenic call (Test System: AMES SALMONELLA TYPHIMURIUM, Strain/Indicator: TA98, Metabolic Activation: NONE, Method: PREINCUBATION) is reported as “inactive; negative”, the mutagenic call (Test System: AMES SALMONELLA TYPHIMURIUM, Strain/Indicator: TA98, Metabolic Activation: RAT, LIVER, S-9, KC 500, Method: PREINCUBATION) is reported as “inactive; negative” and the mutagenic call [7] is reported as “inactive; negative”. For the same compound, the mutagenic call (Test System: AMES SALMONELLA TYPHIMURIUM, Strain/Indicator: TA100, Metabolic Activation: RAT, LIVER, S-9, KC 500, Method: PREINCUBATION) was “inactive; negative”, the mutagenic call (Test System: AMES SALMONELLA TYPHIMURIUM, Strain/Indicator: TA1535, Metabolic Activation: NONE, Method: PREINCUBATION) was “inactive; negative” and the mutagenic call (Test System: AMES SALMONELLA TYPHIMURIUM, Strain/Indicator: TA1535, Metabolic Activation: RAT, LIVER, S-9, KC 500, Method: PREINCUBATION) was “inactive; negative”. For the same compound, the mutagenic call (Test System: AMES SALMONELLA TYPHIMURIUM, Strain/Indicator: TA1537, Metabolic Activation: NONE, Method: PREINCUBATION) was “inactive; negative”, the mutagenic call (Test System: AMES SALMONELLA TYPHIMURIUM, Strain/Indicator: TA1537, Metabolic Activation: RAT, LIVER, S-9, KC 500, Method: PREINCUBATION) was “inactive; negative” and the mutagenic call (Test System: AMES SALMONELLA TYPHIMURIUM, Strain/Indicator: TA1538, Metabolic Activation: NONE, Method: PREINCUBATION) was “inactive; negative”. For the same compound, the mutagenic call (Test System: AMES SALMONELLA TYPHIMURIUM, Strain/Indicator: TA1538, Metabolic Activation: RAT, LIVER, S-9, KC 500, Method: PREINCUBATION) was “inactive; negative”, the mutagenic call (Test System: E. COLI, Strain/Indicator: WP2 UVRA, Metabolic Activation: NONE, Method: PREINCUBATION) was “inactive; negative” and the mutagenic call (Test System: E. COLI, Strain/Indicator: WP2 UVRA, Metabolic Activation: RAT, LIVER, S-9, KC 500, Method: PREINCUBATION) was “inactive; negative”.
For `CC1(c2ccc([N+](=O)[O-])cc2)CO1` (stereo not drawn), the mutagenic call [7] was “active; positive”.
For `O=C(O)c1ccc(Cl)cc1Cl`, the mutagenic call (Test System: Ames Salmonella typhimurium, Strain/Indicator: TA98, Metabolic Activation: None, Method: Preincubation) was “inactive; negative. precipitation at highest dose”, the mutagenic call (Test System: Ames Salmonella typhimurium, Strain/Indicator: TA98, Metabolic Activation: Rat, Liver, S9, Phenobarbital and 5,6-benzoflavone, Method: Preincubation) was “inactive; negative. precipitation at highest dose” and the mutagenic call (Test System: Ames Salmonella typhimurium, Strain/Indicator: TA100, Metabolic Activation: None, Method: Preincubation) was “inactive; negative. precipitation at highest dose”. For the same compound, the mutagenic call (Test System: Ames Salmonella typhimurium, Strain/Indicator: TA100, Metabolic Activation: Rat, Liver, S9, Phenobarbital and 5,6-benzoflavone, Method: Preincubation) was “inactive; negative. precipitation at highest dose”, the mutagenic call (Test System: Ames Salmonella typhimurium, Strain/Indicator: TA1535, Metabolic Activation: None, Method: Preincubation) was “inactive; negative. precipitation at highest dose” and the mutagenic call (Test System: Ames Salmonella typhimurium, Strain/Indicator: TA1535, Metabolic Activation: Rat, Liver, S9, Phenobarbital and 5,6-benzoflavone, Method: Preincubation) was “inactive; negative. precipitation at highest dose”. The mutagenic call (Test System: Ames Salmonella typhimurium, Strain/Indicator: TA1537, Metabolic Activation: None, Method: Preincubation) was “inactive; negative. precipitation at highest dose”, the mutagenic call (Test System: Ames Salmonella typhimurium, Strain/Indicator: TA1537, Metabolic Activation: Rat, Liver, S9, Phenobarbital and 5,6-benzoflavone, Method: Preincubation) was “inactive; negative. precipitation at highest dose” and the mutagenic call (Test System: E. coli, Strain/Indicator: WP2uvrA/pKM101, Metabolic Activation: None, Method: Preincubation) was “inactive; negative. precipitation at highest dose”. The mutagenic call (Test System: E. coli, Strain/Indicator: WP2uvrA/pKM101, Metabolic Activation: Rat, Liver, S9, Phenobarbital and 5,6-benzoflavone, Method: Preincubation) was “inactive; negative. precipitation at highest dose”.
`COc1ccc(N(CCCl)CCCl)c2cc([N+](=O)[O-])oc12` was tested, and the mutagenic call (Test System: AMES SALMONELLA TYPHIMURIUM, Strain/Indicator: TA100(NR), Metabolic Activation: NONE, Method: STANDARD PLATE) was “inactive; negative”, the mutagenic call (Test System: AMES SALMONELLA TYPHIMURIUM, Strain/Indicator: TA100(NR), Metabolic Activation: RAT, LIVER, S-9, AROCLOR 1254, Method: STANDARD PLATE) was “active; positive” and the mutagenic call [2] was “active; positive”. The mutagenic call [3] was “active; positive”.
